Assay results reported in US20100119609A1, “METHODS, COMPOSITIONS, AND FORMULATIONS FOR THE TREATMENT OF THYROID EYE DISEASE” (priority 2006, published 2010).

Columns and labels:
[1] = compared with albuterol 5, a short acting hydrophilic beta agonist; cited from earlier work
[2] = tested on: cultured human adipocytes; test: In vitro lipolysis assay (glycerol release) in cultured adipocytes; type: cell-based; conditions: for increase in lipolysis relative to negative control: glycerol in Assay Buffer
Procedure: In the in vitro lipolysis assay, glycerol was detected in cell culture media via a spectrophotometric measurement after chemical oxidation with hydrogen peroxide. Glycerol was measured over a three hour time period. Levels of lipolysis in cultured human adipocytes were tested after exposure to a beta agonist alone, a glucocorticosteroid alone, or the combination of the two for one or more preincubation periods as described in more detail below.
Human subcutaneous adipocytes were used in the lipolysis assay. Adipose tissue was harvested from liposuction or lipectomy and pre-adipocytes were isolated as follows. Briefly, fat tissue was minced and incubated at 37° C. in Krebs-Ringer bicarbonate buffer containing 1% bovine serum albumin and 0.1% collagenase in an oxygen-rich shaking chamber (5% CO2; 75 strokes/min) for 1 hour. The suspension was filtered through a 400 tim nylon mesh and centrifuged for 1 mm at 100 g. The pre-adipocytes in the […] were washed twice with and then plated in 96 well plates at a density of cells/well. The pre-adipocytes were cultured in maintenance medium for seven days as they differentiated into adipocytes.
At −21 hours before the lipolysis assay, medium was removed from each well and replaced with 75 μl of Maintenance Medium containing appropriate drug or DMSO (vehicle) concentrations (see Experimental Design section below). Each test drug or control treatment was applied to 8 wells/group (12 treatment groups per 96-well plate). At −3 hours prior to the lipolysis assay, each well was washed two times with Wash Buffer (200 μl/wash), filled with test or control solutions made up in Assay Buffer (75 μl/well), and then incubated for three hours, i.e., until measurement of glycerol content in the Assay Buffer. For some groups, a drug was only added for the three hour incubation period (see Experimental and Control Groups Below).
The glycerol content of the Assay Buffer from each well following the incubation was used as an index for lipolysis, where an increase in glycerol indicated lipolysis. Glycerol levels were assayed colorimetrically via a commercial glycerol assay kit (Randox Laboratory, United Kingdom) and quantified by comparison to a glycerol serial dilution standard curve (3 μM-200 μM). Glycerol concentrations for each well were normalized to cell density.
In each of the following control or experimental groups n=8 corresponding to the glycerol measurements for 8 wells from a 96-well cell culture plate.

[3] = 18 hour incubation, Salmeterol 10^−6 M or 10^−8 M, Budesonide 10^−6 M, Isoproterenol 10^−6 M
[4] = three hour incubation, isoproterenol 10^−6 M

| Compound | lipophilicity relative to albuterol [1] | effect on lipolysis in cultured adipocytes [2, 3] | increase in lipolysis relative to negative control [2, 4] | effect on lipolysis in cultured adipocytes ([2]; three hour incubation) | lipolysis compared with isoproterenol (positive control) [2, 4] |
| --- | --- | --- | --- | --- | --- |
| OCc1cc(C(O)CNCCCCCCOCCCCc2ccccc2)ccc1O (racemic) [Salmeterol, ±2-(hydroxymethyl)-4-[1-hydroxy-2-[6-(4-phenylbutoxy)hexylamino]ethyl]-phenol] | at least 10,000 times | – | – | – | – |
| CC(C)NCC(O)c1ccc(O)c(O)c1 (stereo not shown) [Isoproterenol, isoproterenol] | – | decreased lipolysis | about 2.5 fold | – | – |
| budesonide | – | slight suppression of lipolysis | up to 1.5 fold | dose-dependent induction of lipolysis | lower than that observed for Isoproterenol |
